US10550111B2, “Pyrimidine urea compound containing isoxazolines and use thereof” (SHENYANG SINOCHEM AGROCHEMICALS R&D CO., LTD, priority 2014, dated 2020)

Columns and labels:
Format in all cases: in vivo
[1] = system: Abutilon theophrasti Medic.; experiment: Bioassay of herbicidal activity in greenhouse (further screening); conditions: post-emergence
Method in brief: (§1)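 Monocot and dicot weeds grown in greenhouse pots; emulsifiable concentrate track-sprayed at 500 L/hm² pre-emergence (24 h after seeding) or post-emergence (grasses 2–3-leaf, broad-leaves 2–4-leaf). Growth inhibition scored visually, 0 = no action, 100 = all dead or not emerged.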

[2] = system: Echinochloa crus-galli (L.) Beauv.; experiment: as above; conditions: post-emergence
Method in brief: as §1

[3] = system: Setaria glauca (L.) Beauv.; experiment: as above; conditions: post-emergence
Method in brief: as §1

[4] = system: Zinnia elegans Jacq.; experiment: as above; conditions: post-emergence
Method in brief: as §1

[5] = system: broad-leaf weeds and grass weeds; experiment: General screening of herbicidal activity in greenhouse; conditions: 1000 g a.i./hm^2;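 note: 0 means no visible effect and 100 means all weeds dead or not emerged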
Method in brief: as §1

CCOCCOC(=O)C1(C)CC(c2cc(-n3c(=O)cc(C(F)(F)F)n(C)c3=O)c(F)cc2Cl)=NO1 (stereo not drawn) [Compound 15]
65%: Growth inhibition rate, Post-emergence treatment, Abutilon theophrasti Medic. ([1]; dose 7.5 g a.i./hm^2)
98%: Growth inhibition rate, Post-emergence treatment, Setaria glauca (L.) Beauv. ([3]; dose 15 g a.i./hm^2)
100%: Growth inhibition rate, Post-emergence treatment, Abutilon theophrasti Medic. ([1]; dose 15 g a.i./hm^2) | Growth inhibition rate, Post-emergence treatment, Abutilon theophrasti Medic. ([1]; dose 30.0 g a.i./hm^2) | Growth inhibition rate, Post-emergence treatment, Abutilon theophrasti Medic. ([1]; dose 60.0 g a.i./hm^2) | Growth inhibition rate, Post-emergence treatment, Abutilon theophrasti Medic. ([1]; dose 120.0 g a.i./hm^2) | Growth inhibition rate, Post-emergence treatment, Echinochloa crus-galli (L.) Beauv. ([2]; dose 30.0 g a.i./hm^2) | Growth inhibition rate, Post-emergence treatment, Echinochloa crus-galli (L.) Beauv. ([2]; dose 60.0 g a.i./hm^2) | Growth inhibition rate, Post-emergence treatment, Echinochloa crus-galli (L.) Beauv. ([2]; dose 120.0 g a.i./hm^2) | Growth inhibition rate, Post-emergence treatment, Setaria glauca (L.) Beauv. ([3]; dose 30.0 g a.i./hm^2) | Growth inhibition rate, Post-emergence treatment, Setaria glauca (L.) Beauv. ([3]; dose 60.0 g a.i./hm^2) | Growth inhibition rate, Post-emergence treatment, Setaria glauca (L.) Beauv. ([3]; dose 120.0 g a.i./hm^2) | Growth inhibition rate, Post-emergence treatment, Zinnia elegans Jacq. ([4]; dose 7.5 g a.i./hm^2) | Growth inhibition rate, Post-emergence treatment, Zinnia elegans Jacq. ([4]; dose 15 g a.i./hm^2) | Growth inhibition rate, Post-emergence treatment, Zinnia elegans Jacq. ([4]; dose 30.0 g a.i./hm^2) | Growth inhibition rate, Post-emergence treatment, Zinnia elegans Jacq. ([4]; dose 60.0 g a.i./hm^2) | Growth inhibition rate, Post-emergence treatment, Zinnia elegans Jacq. ([4]; dose 120.0 g a.i./hm^2)
good: pre-emergence and post-emergence herbicidal activity against broad-leaf weeds and grass weeds [5]
70%: Growth inhibition rate, Post-emergence treatment, Echinochloa crus-galli (L.) Beauv. ([2]; dose 7.5 g a.i./hm^2)
75%: Growth inhibition rate, Post-emergence treatment, Setaria glauca (L.) Beauv. ([3]; dose 7.5 g a.i./hm^2)
85%: Growth inhibition rate, Post-emergence treatment, Echinochloa crus-galli (L.) Beauv. ([2]; dose 15 g a.i./hm^2)
